Experiments:
Assay type in all cases: physicochemical
[1] = In vitro drug release through porous membrane, Franz diffusion cells; details: within 24 hours of NPS application; 0.5% w/v Volpo in PBS (pH 7.4), 32° C.
Protocol: In vitro drug release studies of KP-NPS, SP-NPS, SP+KP-NPS, KP-NPS-OA, SP-NPS-OA and SP+KP-NPS-OA were performed to investigate the amount of drug released from NPS or NPS-OA. A porous membrane of MWCO at 50,000 Da (SIGMA-ALDRICH Co., St. Louis, Mo.) was used. The membrane was mounted between the donor and receiver compartments of Franz diffusion cells (N. Ghouchi Eskandar, S. Simovic, C. Prestidge, Nanoparticle coated submicron emulsions: sustained in-vitro release and improved dermal delivery of All-trans-retinol, Pharm Res, 26 (2009) 1764-1775).
The NPS dispersion was applied evenly on the surface of the membrane in the donor compartment. […] At predetermined time intervals (e.g., 1, 2, 4, 6, 8, 12, 22, 24, 48 and 72 hours), 0.5 ml samples were collected from the receiver compartment and replaced with fresh buffer solution. The samples collected from receiver compartment were analyzed for drug content using the HPLC method.

[2] = Solubility test in selected receiver fluids
[3] = Entrapment efficiency using vivaspin columns; details: in NPS; unaffected by surface modification
Protocol: The NPS and NPS-OA (0.5 ml) were placed on top of the vivaspin centrifuge filter membrane and centrifuged at 4,500 rpm for fifteen (15) minutes. The amount of SP and KP present in the aqueous phase was estimated using HPLC.

| release of drug from NPS [1] [%] | solubility ([2]; 0.1% w/v Volpo 20 in PBS (pH 7.4), 1 mg/ml) | solubility ([2]; 0.5% w/v Volpo 20 in PBS (pH 7.4), 1 mg/ml) | solubility ([2]; 5% w/v BSA in PBS (pH 7.4)) | solubility ([2]; SP and KP mixed together in PBS (pH 7.4) containing 10% w/v ethanol) | solubility ([2]; ethanol) | entrapment efficiency [3] | Molecule |
| --- | --- | --- | --- | --- | --- | --- | --- |
| > 75 |  |  |  |  |  |  | CC(C(=O)O)c1cccc(C(=O)c2ccccc2)c1 (centres unmarked) [KP, Ketoprofen] |
| 34 | insoluble | soluble | soluble | precipitation was observed | soluble | 92.81%±2.17 | Spantide II |

From patent US8865206B1, “Surface modified multilayered nanostructures for dermal delivery” (Florida A&M University, priority 2010, dated 2014)
